Source: paper PMC6152156 (Molecules : A Journal of Synthetic Chemistry and Natural …, 2017)

What was measured:
[1] = biological target: T1, AChE (Rattus norvegicus, UniProt P37136); assay: In vitro AChE inhibitory assay (Ellman's method); type: biochemical; settings: AChE from SD rat brain homogenate; ASCh substrate; 60 min, 37 °C; read-out: IC50(μM) AChE
T1 construct: AChE was derived from the SD rat brains by homogenizing the brain with 20-fold saline solution; from tissue; host or cells: SD rat brain homogenate (supernatant after 800 x g)
T1 sequence (P37136 32-614): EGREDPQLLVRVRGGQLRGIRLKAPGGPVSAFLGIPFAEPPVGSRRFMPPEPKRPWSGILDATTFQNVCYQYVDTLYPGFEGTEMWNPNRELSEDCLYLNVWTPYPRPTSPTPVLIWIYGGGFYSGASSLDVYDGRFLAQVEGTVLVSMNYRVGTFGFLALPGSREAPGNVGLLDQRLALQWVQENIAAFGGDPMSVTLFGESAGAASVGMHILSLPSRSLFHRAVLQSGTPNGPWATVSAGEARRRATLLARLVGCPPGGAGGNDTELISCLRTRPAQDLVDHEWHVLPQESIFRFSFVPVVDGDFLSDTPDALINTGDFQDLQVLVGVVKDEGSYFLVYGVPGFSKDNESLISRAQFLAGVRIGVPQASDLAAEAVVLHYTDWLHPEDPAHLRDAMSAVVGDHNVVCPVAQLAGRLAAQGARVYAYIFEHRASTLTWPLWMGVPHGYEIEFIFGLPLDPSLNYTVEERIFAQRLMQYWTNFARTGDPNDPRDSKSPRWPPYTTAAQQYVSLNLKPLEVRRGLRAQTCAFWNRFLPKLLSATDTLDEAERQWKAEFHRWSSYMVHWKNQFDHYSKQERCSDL
Description: The AChE inhibitory activity of DL0410 derivatives was assessed by determining the hydrolysis product of Acetylthiocholine iodide (ASCh) using the Ellman’s method. 5,5′-Dithiobis (2-nitrobenzoic acid) (DTNB), and the substrate ASCh were purchased from Sigma Aldrich. AChE was derived from the SD rat brains by homogenizing the brain with 20-fold saline solution, and then centrifuged at 800× g for 20 min at 4 °C. To acquire the inhibition of AChE activity, five serial dilutions of samples were measured. A Spectra Max M5 microplate reader (Molecular Devices, Sunnyvale, CA, USA) was utilized for the assay for AChE reaction system with 96-well plates in 0.05 M phosphate-buffered solution (PBS). The reaction system includes 10 μL sample, 20 μL AChE solution, 60 μL 3.75 mM ASCh, and 80 μL 0.25 mg/mL DTNB. It took 60 min at 37 °C for incubation, and the absorbance intensity of AChE reaction system was quantified at 412 nm.

[2] = biological target: T2, BuChE (Homo sapiens, UniProt P06276); assay: In vitro BuChE inhibitory assay (Ellman-type, human plasma); type: biochemical; settings: BuChE from human plasma; BuSCh substrate; 60 min, 37 °C; read-out: IC50(μM) BuChE
T2 construct: BuChE was obtained from human plasma (purchased from Beijing Red Cross Blood Center China); tissue Beijing Red Cross Blood Center China; host or cells: human plasma, diluted 200-fold with 0.05 M PBS
T2 sequence (P06276 29-602): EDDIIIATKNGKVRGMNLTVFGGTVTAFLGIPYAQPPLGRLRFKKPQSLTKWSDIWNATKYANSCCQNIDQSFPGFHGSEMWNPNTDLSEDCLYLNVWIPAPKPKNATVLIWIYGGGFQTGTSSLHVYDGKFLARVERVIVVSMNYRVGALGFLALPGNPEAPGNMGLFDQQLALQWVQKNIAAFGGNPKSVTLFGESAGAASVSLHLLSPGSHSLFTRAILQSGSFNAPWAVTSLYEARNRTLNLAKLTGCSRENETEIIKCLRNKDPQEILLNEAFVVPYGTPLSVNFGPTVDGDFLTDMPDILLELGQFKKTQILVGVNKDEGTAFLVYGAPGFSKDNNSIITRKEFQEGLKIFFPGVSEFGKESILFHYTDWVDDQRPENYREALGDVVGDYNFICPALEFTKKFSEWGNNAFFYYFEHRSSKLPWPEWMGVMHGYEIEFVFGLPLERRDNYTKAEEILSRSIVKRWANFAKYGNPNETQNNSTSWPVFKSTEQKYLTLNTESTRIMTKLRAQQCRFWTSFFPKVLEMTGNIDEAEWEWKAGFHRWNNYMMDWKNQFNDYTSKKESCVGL
Description: BuChE was obtained from human plasma (purchased from Beijing Red Cross Blood Center China). Before utilization, human plasma was diluted 200-fold with 0.05 M PBS. Five serial dilutions of samples are determined to obtain BuChE inhibitory activity. The BuChE reaction system is similar to the assay above, including 10 μL samples, 40 μL diluted plasma sample, 70 μL 7.5 mM S-butyrylthiocholine (BuSCh), and 80 μL 0.25 mg/mL DTNB. After incubation at 37 °C for 60 min, the absorbance intensity of the system was measured at wavelength 412 nm.

| SMILES | IC50 [1] [µM] | IC50 [2] [µM] |
| --- | --- | --- |
| O=C(c1ccc(-c2ccc(C(=O)N3CCCCC3)cc2)cc1)N1CCCCC1 [Compound 1-2] | 0.84 | 2.22 |
| O=C(CCCN1CCCCC1)c1ccc(-c2ccc(C(=O)CCN3CCCCC3)cc2)cc1 [Compound 1-5] | 0.41 | 1.88 |
| O=C(CCN1CCCCC1)c1ccc(-c2ccc(C(=O)CN3CCCCC3)cc2)cc1 [Compound 1-6] | 3.32 | 4.87 |
| CC1CCN(CC(=O)c2ccc(-c3ccc(C(=O)CN4CCC(C)CC4)cc3)cc2)CC1 [Compound 1-7] | 49.1 | 36.6 |
| CN(C)CCC(=O)c1ccc(-c2ccc(C(=O)CCN(C)C)cc2)cc1 [Compound 1-8] | – | < 1 |
| CCN(CC)CCC(=O)c1ccc(-c2ccc(C(=O)CCN(CC)CC)cc2)cc1 [Compound 1-9] | – | < 1 |
| O=C(CCN1CCOCC1)c1ccc(-c2ccc(C(=O)CCN3CCOCC3)cc2)cc1 [Compound 1-15] | – | < 1 |
| O=C(CCNC1CCCCC1)c1ccc(-c2ccc(C(=O)CCNC3CCCCC3)cc2)cc1 [Compound 1-16] | 2.15 | 1.91 |
| CN(CCC(=O)c1ccc(-c2ccc(C(=O)CCN(C)Cc3ccccc3)cc2)cc1)Cc1ccccc1 [Compound 1-17] | 3.33 | 6.56 |
| COc1ccc2[nH]cc(CCNCC(=O)c3ccc(-c4ccc(C(=O)CNCCc5c[nH]c6ccc(OC)cc56)cc4)cc3)c2c1 [Compound 1-18] | 9.52 | > 200 |
| O=C(CCN1CCC(N2CCCCC2)CC1)c1ccc(-c2ccc(C(=O)CCN3CCC(N4CCCCC4)CC3)cc2)cc1 [Compound 1-19] | 0.25 | > 200 |
| O=C(CN1CCCCC1)c1ccc(CCc2ccc(C(=O)CN3CCCCC3)cc2)cc1 [Compound 2-1] | 75.5 | – |
| O=C(CCN1CCCCC1)c1ccc(CCc2ccc(C(=O)CCN3CCCCC3)cc2)cc1 [Compound 2-3] | – | 3.41 |
| O=C(CCCCN1CCC1)c1ccc(CCc2ccc(C(=O)CCCCN3CCC3)cc2)cc1 [Compound 2-6] | 12.2 | > 200 |
| CN(C)CCCCC(=O)c1ccc(CCc2ccc(C(=O)CCCCN(C)C)cc2)cc1 [Compound 2-10] | 3.96 | 2.77 |
| O=C(CCN1CCCCC1)c1ccc(Cc2ccc(C(=O)CCN3CCCCC3)cc2)cc1 [Compound 3-1] | 4.11 | 4.2 |
| O=C(CCN1CCOCC1)c1ccc(Cc2ccc(C(=O)CCN3CCOCC3)cc2)cc1 [Compound 3-2] | 7.09 | 7.65 |
| CN1CCN(CC(=O)c2ccc(Cc3ccc(C(=O)CN4CCN(C)CC4)cc3)cc2)CC1 [Compound 3-3] | 48.5 | 40 |
| CN1CCN(CCC(=O)c2ccc(Cc3ccc(C(=O)CCN4CCN(C)CC4)cc3)cc2)CC1 [Compound 3-4] | 7.55 | 24.4 |
| CN(C)CCC(=O)c1ccc(Cc2ccc(C(=O)CCN(C)C)cc2)cc1 [Compound 3-5] | 3.32 | 1.72 |
| CN(C)CCC(=O)c1ccc(C(C)(C)c2ccc(C(=O)CCN(C)C)cc2)cc1 [Compound 4-1] | 4.89 | 6 |
| CN(C)CC(=O)c1ccc(C(C)(C)c2ccc(C(=O)CN(C)C)cc2)cc1 [Compound 4-2] | 54.4 | 5.95 |
| CC(C)(c1ccc(C(=O)CCN2CCCCC2)cc1)c1ccc(C(=O)CCN2CCCCC2)cc1 [Compound 4-3] | 3.07 | 3.09 |
| CC(C)(c1ccc(C(=O)CN2CCCCC2)cc1)c1ccc(C(=O)CN2CCCCC2)cc1 [Compound 4-4] | 17.4 | 2.93 |
| CC(C)(c1ccc(C(=O)CCN2CCOCC2)cc1)c1ccc(C(=O)CCN2CCOCC2)cc1 [Compound 4-5] | 15.7 | 16.3 |
| O=C(CCN1CCCCC1)c1ccc(Oc2ccc(C(=O)CCN3CCCCC3)cc2)cc1 [Compound 5-1] | 0.89 | 5.68 |
| O=C(CCN1CCCCC1)c1ccc(Sc2ccc(C(=O)CCN3CCCCC3)cc2)cc1 [Compound 5-2] | 3.89 | 3.44 |
